In patent US20250367302A1, “SMALL MOLECULE DRUG-OLIGONUCLEOTIDE CONJUGATE AND USE THEREOF” (SHANGHAI JIAO TONG UNIVERSITY, priority 2022, published 2025):
In the oligonucleotide strings, read from the 5' end, every base follows the letter of its sugar. An asterisk marks phosphorothioate; unmarked linkages are phosphodiester. Other units and linkages are bracketed, terminal groups are in braces. A string of capitals states the bases alone. d = 2'-deoxy (DNA); r = 2'-OH (RNA)

System: mice with xerophthalmia (0.2% benzalkonium chloride)
Assay: Benzalkonium chloride xerophthalmia mouse model: sodium fluorescein staining and phenol red cotton thread tear test
Type: in vivo, mouse (C57BL/6)
Conditions: for phenol red cotton thread infiltration length (tear secretion) after 14 d of treatment / sodium fluorescein staining eye score after 14 d of treatment: eye drops 5 μL per eye twice daily, 400 μM CsA (10RAP: 400 μM rapamycin), day 14; for phenol red cotton thread infiltration length (tear secretion), day 0 (before treatment) / sodium fluorescein staining eye score, day 0 (before treatment): xerophthalmia mice, baseline of the treatment group
Protocol: The ocular xerophthalmia model was established in 6-8 weeks old mice (C57BL/6, Suzhou Xishan Biotechnology Co., Ltd.) with 0.2% benzalkonium chloride. 5 μL of 0.2% benzalkonium chloride was dripped into each eye of the mice, once in the morning and once in the evening every day, for two consecutive weeks. After successful modeling, the hospital-prepared CsA eye drops (400 µM CsA, referred to as hospital-prepared CsA eye drops or CsA eye drops, provided by the Eye, Ear, Nose and Throat Hospital Affiliated to Fudan University School of Medicine, Shanghai) and CsA-ASONFKBIZ-m (400 µM CsA) were used for eye drops treatment, 5 μL per eye, once in the morning and once in the evening. Sodium fluorescein staining and phenol red cotton thread tear secretion test were conducted on days 0, 7, and 14 of treatment to evaluate the therapeutic effect.
(§1) The ocular xerophthalmia model was established in 6-8 weeks old mice (C57BL/6, Suzhou Xishan Biotechnology Co., Ltd.) with 0.2% benzalkonium chloride. 5 μL of 0.2% benzalkonium chloride was dripped into each eye of the mice, once in the morning and once in the evening every day, for two consecutive weeks. After successful modeling, the hospital-prepared CsA eye drops (400 μM CsA, provided by the Eye, Ear, Nose and Throat Hospital Affiliated to Fudan University School of Medicine, Shanghai) and 2CsA-ASONFKBIZ-m (400 µM CsA) were used for eye drops treatment, 5 μL per eye, once in the morning and once in the evening. Sodium fluorescein staining and phenol red cotton thread tear secretion test were conducted on days 0, 7, and 14 of treatment to evaluate the therapeutic effect.
as §1, with “µM” for “μM”, “provided” for “provided by”, “3CsA-ASONFKBIZ-m nanomicelles (133 µM ASO concentration, 400” for “2CsA-ASONFKBIZ-m (400”
as §1, with “CsA3-ASONFKBIZ-m nanomicelles” for “2CsA-ASONFKBIZ-m”, “0” for “0, 7,”
The ocular xerophthalmia model was established in 6-8 weeks old mice (C57BL/6, Suzhou Xishan Biotechnology Co., Ltd.) using 0.2% benzalkonium chloride. 5 μL of 0.2% benzalkonium chloride was dripped into each eye of the mouse, once in the morning and once in the evening every day for two weeks. After successful modeling, the hospital-prepared CsA eye drops (400 µM CsA, provided by the Eye, Ear, Nose and Throat Hospital Affiliated to Fudan University School of Medicine, Shanghai) and CsA-siRNANFKBIZ-m (400 µM CsA), 2CsA-siRNANFKBIZ-m nanomicelles (400 µM CsA), 3CsA-siRNANFKBIZ-m nanomicelles (400 µM CsA) were used for eye drops treatment, 5 μL per eye, once in the morning and once in the evening. […]

Substance	phenol red cotton thread infiltration length (tear secretion) after 14 d of treatment	sodium fluorescein staining eye score after 14 d of treatment	phenol red cotton thread infiltration length (tear secretion), day 0 (before treatment)	sodium fluorescein staining eye score, day 0 (before treatment)
2CsA-ASONFKBIZ-m: two CsA molecules coupled to 2DBCO ASO targeting mouse NFKBIZ (SEQ ID 4), self-assembled (AATACTGGTACATTGACGCCNTT; two CsA via DBCO click; modified_base 21 OTHER; n is t base modified with DBCO moiety)	about 3.5 mm	about 3.5 points	1.5 mm	6 points
2CsA-siRNANFKBIZ-m: two CsA coupled to sense strand of siRNA targeting mouse NFKBIZ (SEQ ID NO: 17/18) (sense GCGUCAAUGUACCAGUAUUUUNUU; antisense AAUACUGGUACAUUGACGCCU; two CsA on sense strand; modified_base 22 OTHER; n is t base modified with DBCO moiety)	about 2.5 mm	about 2 points	1.5 mm	6 points
3CsA-ASONFKBIZ-m: three CsA molecules coupled to 3DBCO ASO targeting mouse NFKBIZ (SEQ ID 6), self-assembled (AATACTGGTACATTGACGCCNTNTT; three CsA via DBCO click; modified_base 21 OTHER; n is t base modified with DBCO moiety; modified_base 23 OTHER)	about 4 mm	about 4 points	1.3 mm	10 points
3CsA-siRNANFKBIZ-m: three CsA coupled to sense strand of siRNA targeting mouse NFKBIZ (SEQ ID NO: 19/20) (sense GCGUCAAUGUACCAGUAUUUUNUNUU; antisense AAUACUGGUACAUUGACGCCU; three CsA on sense strand; modified_base 22 OTHER; n is t base modified with DBCO moiety; modified_base 24 OTHER)	about 2.5 mm	about 2 points	1.5 mm	6 points
CsA-ASONFKBIZ-m: single cyclosporin A (CsA-N3) click-coupled to 3′-DBCO ASO targeting mouse NFKBIZ gene (SEQ ID NO: 2) (AATACTGGTACATTGACGCC; 3'-DBCO ASO click-conjugated to one cyclosporin A, sugar and linkages not given here, further chemistry not given here)	about 3.2 mm	about 3 points	1.8 mm	5.5 points
CsA-siRNANFKBIZ-m: one CsA coupled to sense strand of siRNA targeting mouse NFKBIZ (SEQ ID NO: 15/16) (sense rGrCrGrUrCrArArUrGrUrArCrCrArGrUrArUrUdTdT; antisense rArArUrArCrUrGrGrUrArCrArUrUrGrArCrGrCdCdT; cyclosporin A clicked onto the sense 3' DBCO group, further chemistry not fully specified)	about 2.5 mm	about 3 points	2 mm	6 points
